The text below walks through data of US20250361268A1, “NOVEL ANTI-INFLAMMATORY PEPTIDE AND USE THEREOF” (NOVACELL TECHNOLOGY INC., priority 2022, published 2025).

Peptide text beside a SMILES is read from it. Where only a bound is given, the exact number is not on record here.

One experiment addresses T1, FPR1 (Homo sapiens, UniProt P21462).
T1 sequence (P21462 1-350): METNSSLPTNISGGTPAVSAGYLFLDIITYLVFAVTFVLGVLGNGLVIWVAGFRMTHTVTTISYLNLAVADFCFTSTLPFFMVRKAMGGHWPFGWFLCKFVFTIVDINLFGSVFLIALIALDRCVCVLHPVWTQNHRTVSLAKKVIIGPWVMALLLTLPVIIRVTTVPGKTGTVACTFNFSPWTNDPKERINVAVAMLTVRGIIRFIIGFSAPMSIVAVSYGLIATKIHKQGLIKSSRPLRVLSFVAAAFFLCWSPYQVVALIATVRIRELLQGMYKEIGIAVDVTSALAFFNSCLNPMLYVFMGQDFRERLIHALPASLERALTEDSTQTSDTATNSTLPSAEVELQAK
The experiment in a line: Change in calcium activity by peptide, FPR1 activation effect. It counts as cell-based. Particulars: calcium activity (Fura-2), graded per Table 3, read-out: EC50 for [Ca^2+] FPR1. A digest of the protocol:
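Calcium flux induced by peptide addition was monitored on a FlexStation 3 plate reader. Before this, cells seeded a day earlier (3×10^5/well) took up the Fura-2 dye for 1 h at 37 °C plus 30 min dark at room temperature.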

For the next experiment, the target named is T2, FPR2 (Homo sapiens, UniProt P25090).
T2 construct: expressed in transfected cells; host or cells: RBL cells (RBL-FPR2)
T2 sequence (P25090 1-351): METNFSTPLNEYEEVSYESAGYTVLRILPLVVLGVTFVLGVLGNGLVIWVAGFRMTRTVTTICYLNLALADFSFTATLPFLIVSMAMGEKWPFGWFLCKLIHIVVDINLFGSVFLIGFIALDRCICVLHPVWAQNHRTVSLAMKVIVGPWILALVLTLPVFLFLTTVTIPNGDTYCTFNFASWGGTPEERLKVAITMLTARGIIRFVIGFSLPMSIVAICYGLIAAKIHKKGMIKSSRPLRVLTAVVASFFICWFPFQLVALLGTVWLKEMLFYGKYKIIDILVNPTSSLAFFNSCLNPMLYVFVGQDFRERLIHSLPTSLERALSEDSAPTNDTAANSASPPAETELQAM
The experiment can be described thus: Change in calcium activity by peptide (Fura-2) in RBL cells overexpressing FPR2. Particulars: calcium activity (Fura-2), graded per Table 3, read-out: EC50 for [Ca^2+] FPR2. It counts as cell-based. A digest of the protocol: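 Peptide-induced intracellular calcium change measured by Fura-2 fluorescence on a plate reader. Cells: RBL line overexpressing FPR2, dye-loaded 1 h at 37 °C then 30 min at RT in dark; peptides from 0.5 mM water/50% DMSO stocks, diluted in HBSS with 20 mM HEPES.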

The EC50 is the concentration at which the effect is half-maximal.

Consider `CSCC[C@@H](NC(=O)[C@@H](NC(=O)[C@H](CCCCN)NC(=O)[C@H](Cc1ccc(O)cc1)NC(=O)[C@H](CCCCN)NC(=O)[C@@H]1CCCN1C(C)=O)C(C)C)C(N)=O` [Peptide 139] (HELM PEPTIDE1{[ac].P.K.Y.K.V.[dM].[am]}$$$$V2.0), for which the EC50 on FPR1 is more than 10 µM; at FPR2, less than 0.01 µM.

Regarding `CCCC(=O)N1CCC[C@H]1C(=O)N[C@@H](CCCCN)C(=O)N[C@@H](Cc1ccc(O)cc1)C(=O)N[C@@H](CCCCN)C(=O)N[C@H](C(=O)N[C@H](CCSC)C(N)=O)C(C)C` [Peptide 140] (HELM PEPTIDE1{[CCCC(=O)[*:2]].P.K.Y.K.V.[dM].[am]}$$$$V2.0), the figures for the EC50 on FPR1 and on FPR2 were more than 10 µM and less than 0.01 µM, respectively.

Take `CCCCCCCC(=O)N1CCC[C@H]1C(=O)N[C@@H](CCCCN)C(=O)N[C@@H](Cc1ccc(O)cc1)C(=O)N[C@@H](CCCCN)C(=O)N[C@H](C(=O)N[C@H](CCSC)C(N)=O)C(C)C` [Peptide 141] (HELM PEPTIDE1{[CCCCCCCC(=O)[*:2]].P.K.Y.K.V.[dM].[am]}$$$$V2.0): the EC50 is more than 10 µM on FPR1 and less than 0.01 µM on FPR2.

As to `CC[C@H](C)[C@H](N)C(=O)N[C@@H](CCCCN)C(=O)N[C@@H](Cc1ccc(O)cc1)C(=O)N[C@@H](CCCCN)C(=O)N1CCC[C@H]1C(=O)N[C@H](CCSC)C(N)=O` [Peptide 142] (HELM PEPTIDE1{I.K.Y.K.P.[dM].[am]}$$$$V2.0), the half-maximal effective concentration (EC50) was more than 10 µM on FPR1 and less than 0.01 µM on FPR2.

Turning to `CC[C@H](C)[C@H](NC(C)=O)C(=O)N[C@@H](CCCCN)C(=O)N[C@@H](Cc1ccc(O)cc1)C(=O)N[C@@H](CCCCN)C(=O)N1CCC[C@H]1C(=O)N[C@H](CCSC)C(N)=O` [Peptide 143] (HELM PEPTIDE1{[ac].I.K.Y.K.P.[dM].[am]}$$$$V2.0), the figures for the EC50 on FPR1 and at FPR2 were more than 10 µM and less than 0.01 µM, respectively.

For `CCCC(=O)N[C@H](C(=O)N[C@@H](CCCCN)C(=O)N[C@@H](Cc1ccc(O)cc1)C(=O)N[C@@H](CCCCN)C(=O)N1CCC[C@H]1C(=O)N[C@H](CCSC)C(N)=O)[C@@H](C)CC` [Peptide 144] (HELM PEPTIDE1{[CCCC(=O)[*:2]].I.K.Y.K.P.[dM].[am]}$$$$V2.0), the EC50 at FPR1 was more than 10 µM; at FPR2, less than 0.01 µM.

In the case of `CCCCCCCC(=O)N[C@H](C(=O)N[C@@H](CCCCN)C(=O)N[C@@H](Cc1ccc(O)cc1)C(=O)N[C@@H](CCCCN)C(=O)N1CCC[C@H]1C(=O)N[C@H](CCSC)C(N)=O)[C@@H](C)CC` [Peptide 145] (HELM PEPTIDE1{[CCCCCCCC(=O)[*:2]].I.K.Y.K.P.[dM].[am]}$$$$V2.0), the EC50 at FPR1 was more than 10 µM; at FPR2, 0.011 to 0.1 µM.

`CSCC[C@@H](NC(=O)[C@@H]1CCCN1C(=O)[C@H](CCCCN)NC(=O)[C@H](Cc1ccc(O)cc1)NC(=O)[C@H](CCCCN)NC(=O)[C@@H](N)Cc1c[nH]cn1)C(N)=O` [Peptide 146] (HELM PEPTIDE1{H.K.Y.K.P.[dM].[am]}$$$$V2.0): the EC50 was more than 10 µM at FPR1 and less than 0.01 µM at FPR2.

Regarding `CSCC[C@@H](NC(=O)[C@@H]1CCCN1C(=O)[C@H](CCCCN)NC(=O)[C@H](Cc1ccc(O)cc1)NC(=O)[C@H](CCCCN)NC(=O)[C@H](Cc1c[nH]cn1)NC(C)=O)C(N)=O` [Peptide 147] (HELM PEPTIDE1{[ac].H.K.Y.K.P.[dM].[am]}$$$$V2.0), the values for the EC50 on FPR1 and at FPR2 were more than 10 µM and less than 0.01 µM, respectively.

Regarding `CCCC(=O)N[C@@H](Cc1c[nH]cn1)C(=O)N[C@@H](CCCCN)C(=O)N[C@@H](Cc1ccc(O)cc1)C(=O)N[C@@H](CCCCN)C(=O)N1CCC[C@H]1C(=O)N[C@H](CCSC)C(N)=O` [Peptide 148] (HELM PEPTIDE1{[CCCC(=O)[*:2]].H.K.Y.K.P.[dM].[am]}$$$$V2.0), the EC50 on FPR1 was more than 10 µM; on FPR2, less than 0.01 µM.

Take `CCCCCCCC(=O)N[C@@H](Cc1c[nH]cn1)C(=O)N[C@@H](CCCCN)C(=O)N[C@@H](Cc1ccc(O)cc1)C(=O)N[C@@H](CCCCN)C(=O)N1CCC[C@H]1C(=O)N[C@H](CCSC)C(N)=O` [Peptide 149] (HELM PEPTIDE1{[CCCCCCCC(=O)[*:2]].H.K.Y.K.P.[dM].[am]}$$$$V2.0): the EC50 on FPR1 was more than 10 µM; at FPR2, less than 0.01 µM.

`CSCC[C@@H](NC(=O)[C@@H]1CCCN1C(=O)[C@H](Cc1c[nH]c2ccccc12)NC(=O)[C@H](Cc1ccc(O)cc1)NC(=O)[C@H](CCCCN)NC(=O)[C@H](Cc1c[nH]cn1)NC(C)=O)C(N)=O` [Peptide 150] (HELM PEPTIDE1{[ac].H.K.Y.W.P.[dM].[am]}$$$$V2.0): the EC50 on FPR1 was 1 to 10 µM; on FPR2, less than 0.01 µM.

Regarding `CCCC(=O)N[C@@H](Cc1c[nH]cn1)C(=O)N[C@@H](CCCCN)C(=O)N[C@@H](Cc1ccc(O)cc1)C(=O)N[C@@H](Cc1c[nH]c2ccccc12)C(=O)N1CCC[C@H]1C(=O)N[C@H](CCSC)C(N)=O` [Peptide 151] (HELM PEPTIDE1{[CCCC(=O)[*:2]].H.K.Y.W.P.[dM].[am]}$$$$V2.0), the values for the EC50 at FPR1 and on FPR2 were 1 to 10 µM and less than 0.01 µM, respectively.

On to `CC[C@H](C)[C@H](NC(=O)[C@H](CCCNC(=N)N)NC(=O)[C@H](Cc1ccc(O)cc1)NC(=O)[C@H](CCCNC(=N)N)NC(=O)[C@H](Cc1c[nH]c2ccccc12)NC(=O)[C@@H](N)CCCNC(=N)N)C(=O)N[C@H](CCSC)C(N)=O` [Peptide 152] (HELM PEPTIDE1{R.W.R.Y.R.I.[dM].[am]}$$$$V2.0), for which the values for the EC50 on FPR1 and on FPR2 were more than 10 µM and 0.011 to 0.1 µM, respectively.

In the case of `CSCC[C@@H](NC(=O)[C@@H](NC(=O)[C@H](CCCNC(=N)N)NC(=O)[C@H](Cc1ccc(O)cc1)NC(=O)[C@H](CCCNC(=N)N)NC(=O)[C@H](Cc1c[nH]c2ccccc12)NC(=O)[C@@H](N)CCCNC(=N)N)[C@@H](C)O)C(N)=O` [Peptide 153] (HELM PEPTIDE1{R.W.R.Y.R.T.[dM].[am]}$$$$V2.0), the EC50 was more than 10 µM at FPR1 and 0.011 to 0.1 µM at FPR2.

For `CSCC[C@@H](NC(=O)[C@H](Cc1ccc(O)cc1)NC(=O)[C@H](CC(C)C)NC(=O)[C@H](Cc1ccc(O)cc1)NC(=O)[C@H](CCCNC(=N)N)NC(=O)[C@H](Cc1c[nH]c2ccccc12)NC(=O)[C@@H](N)CCCNC(=N)N)C(N)=O` [Peptide 154] (HELM PEPTIDE1{R.W.R.Y.L.Y.[dM].[am]}$$$$V2.0), the 50% effective concentration (EC50) at FPR1 is more than 10 µM; at FPR2, less than 0.01 µM.

As to `CSCC[C@@H](NC(=O)[C@H](Cc1ccc(O)cc1)NC(=O)[C@H](CC(N)=O)NC(=O)[C@H](Cc1ccc(O)cc1)NC(=O)[C@H](CCCNC(=N)N)NC(=O)[C@H](Cc1c[nH]c2ccccc12)NC(=O)[C@@H](N)CCCNC(=N)N)C(N)=O` [Peptide 155] (HELM PEPTIDE1{R.W.R.Y.N.Y.[dM].[am]}$$$$V2.0), the EC50 on FPR1 was more than 10 µM; at FPR2 it was 0.011 to 0.1 µM.

Consider `CSCC[C@@H](NC(=O)[C@H](Cc1ccc(O)cc1)NC(=O)[C@H](Cc1ccccc1)NC(=O)[C@H](Cc1ccc(O)cc1)NC(=O)[C@H](CCCNC(=N)N)NC(=O)[C@H](Cc1c[nH]c2ccccc12)NC(=O)[C@@H](N)CCCNC(=N)N)C(N)=O` [Peptide 156] (HELM PEPTIDE1{R.W.R.Y.F.Y.[dM].[am]}$$$$V2.0), for which the EC50 is more than 10 µM at FPR1 and less than 0.01 µM at FPR2.

Regarding `CSCC[C@@H](NC(=O)[C@H](Cc1ccc(O)cc1)NC(=O)[C@@H](NC(=O)[C@H](Cc1ccc(O)cc1)NC(=O)[C@H](CCCNC(=N)N)NC(=O)[C@H](Cc1c[nH]c2ccccc12)NC(=O)[C@@H](N)CCCNC(=N)N)[C@@H](C)O)C(N)=O` [Peptide 157] (HELM PEPTIDE1{R.W.R.Y.T.Y.[dM].[am]}$$$$V2.0), the EC50 at FPR1 is more than 10 µM; at FPR2, less than 0.01 µM.

On to `CSCC[C@@H](NC(=O)[C@@H](NC(=O)[C@H](CC(C)C)NC(=O)[C@H](Cc1ccc(O)cc1)NC(=O)[C@H](CCCNC(=N)N)NC(=O)[C@H](Cc1c[nH]c2ccccc12)NC(=O)[C@@H](N)CCCNC(=N)N)C(C)C)C(N)=O` [Peptide 158] (HELM PEPTIDE1{R.W.R.Y.L.V.[dM].[am]}$$$$V2.0), for which the EC50 lay in the range of 1 to 10 µM on FPR1 and 0.011 to 0.1 µM on FPR2.

For `CSCC[C@@H](NC(=O)[C@@H](NC(=O)[C@H](CC(N)=O)NC(=O)[C@H](Cc1ccc(O)cc1)NC(=O)[C@H](CCCNC(=N)N)NC(=O)[C@H](Cc1c[nH]c2ccccc12)NC(=O)[C@@H](N)CCCNC(=N)N)C(C)C)C(N)=O` [Peptide 159] (HELM PEPTIDE1{R.W.R.Y.N.V.[dM].[am]}$$$$V2.0), the results for the EC50 on FPR1 and at FPR2 were 1 to 10 µM and 0.011 to 0.1 µM, respectively.

Take `CSCC[C@@H](NC(=O)[C@@H](NC(=O)[C@H](Cc1ccccc1)NC(=O)[C@H](Cc1ccc(O)cc1)NC(=O)[C@H](CCCNC(=N)N)NC(=O)[C@H](Cc1c[nH]c2ccccc12)NC(=O)[C@@H](N)CCCNC(=N)N)C(C)C)C(N)=O` [Peptide 160] (HELM PEPTIDE1{R.W.R.Y.F.V.[dM].[am]}$$$$V2.0): the EC50 at FPR1 was in the range of 1 to 10 µM; on FPR2, 0.011 to 0.1 µM.
